Experimental data: US8258099B2, “Pin1-modulating compounds and methods of use thereof” (Max-Planck-Gesellschaft zur Foerderung der Wissenschaften …, priority 2004, dated 2012)
Square brackets hold non-standard residues; d marks the D form. Peptide text beside a SMILES is read from it. d(pT) = C[C@H](OP(=O)(O)O)[C@@H](N)C(=O)O; 2Nal = N[C@@H](Cc1ccc2ccccc2c1)C(=O)O; Pip = O=C(O)[C@@H]1CCCCN1

System: X. laevis embryos
Assay: Microinjection in X. laevis embryos, cell division
Type: in vivo
Conditions: for number of vital embryos: 5 hours
Procedure: FIG. 8 depicts the blocking of cell division by the injection of peptide 17 in X. laevis embryos. 50-300 pmol of peptide 17 or 300 pmol of its nonphosphorylated derivative (control) dissolved in 10 nl PBS buffer were microinjected in the animal half of X. laevis embryos at stage 2 of development. Embryos with large and/or apoptotic appearing cells surrounded by normally developing cells were counted after further 5 hours (stage 8-9) of development. […] Each value is the average of four independent experiments.
FIGS. 9A-F depicts phenotypic analysis of X. laevis embryos after injection of peptide 17. 300 pmol of peptide 17 or its nonphosphorylated derivative dissolved in 10 nl PBS buffer were injected in the animal half of X. laevis embryos at stage 2 of development. 1.5 hour at stage 6 (A), 2.5 hours at stage 7 (B) and 4-5 hours at stage 8-9 (C, D) after injection enlarged cells became visible. Cells that are blocked in cell division are marked with a white arrow. Controls of uninjected embryos of stage 8-9 and embryos that were injected with 300 pmol of the nonphosphorylated derivative of peptide 17 are shown in panels E and F. The site where the nonphosphorylated derivative of peptide 17 was injected is marked with a white arrow (F).
FIGS. 10A-D depict the rescue of peptide 17 caused cell division block in X. laevis embryos by hPin1 (A, B) and different hPin1 variants (C, D). FIG. 10A depicts the time course of V5-tagged hPin1 expression was analyzed by preparation of X. laevis embryo lysate 1, 2 and 4 hours after injection of 1, 2 or 3 ng of V5-tagged hPin1 mRNA. In every case, the injected volume was 10 nl. Lysates were prepared in lysis buffer containing phosphatase and protease inhibitors. Samples were separated by SDS PAGE followed by western blotting. Endogenous XlPin1 and V5-tagged hPin1 were detected using an anti hPin1 PPIase domain antiserum as primary antibody followed by incubation with a horseradish peroxidase-conjugated secondary antibody. Visualization was done using the SuperSignal® substrate. […] In every case, the whole volume of injection was 10 nl. The indicated amount of the mRNA was injected in the animal half of 30 embryos at stage 2 of development. Embryos with large and/or apoptotic appearing cells surrounded by normally developed cells were counted after additional 5 hours of development (stage 8-9). […] Each percentage of vital embryos shown in the figure is the average of four independent experiments. FIG. 10C indicates the expression of V5-tagged hPin1 variants was evaluated by preparation of embryo lysate after 4 hours of injection of the respective mRNA (2 ng) in X. laevis embryos. Lysates were prepared in lysis buffer containing phosphatase and protease inhibitors. Samples were separated using SDS PAGE followed by western blot analysis. Endogenous XlPin1 and injected V5-tagged hPin1 variants were detected using an anti hPin1 PPIase domain antiserum as primary antibody and a horseradish peroxidase-conjugated secondary antibody. Visualization was done by a chemiluminescent reaction using the SuperSignal® substrate (Pierce). FIG. 10D depicts 250 pmol of peptide 17 was coinjected with 2 ng mRNA of the indicated V5-tagged hPin1 variant (whole volume 10 nl) in the animal half of 30 X. laevis embryos at stage 2 of development. Results were analyzed as described for FIG. 10B. Each percentage of vital embryos shown in the figure is the average of four independent experiments.
Microinjection was done into the animal half of X. laevis embryos at stage 2 of development. In every case, the injection volume was 10 nl. Immunofluorescence studies of frozen X. laevis embryo sections were performed as previously described (Julius et al., 2000). Ten-micrometer cryosections of stage 8 embryos were labelled using a monoclonal anti hPin1 antibody (mouse) followed by incubation with Alexa Fluor 546™-conjugated anti mouse antibody of goat serum (Molecular Probes). […]

## CC(=O)N[C@@H](Cc1ccccc1)C(=O)N[C@@H](C(=O)N1CCCC[C@H]1C(=O)N[C@@H](Cc1ccc2ccccc2c1)C(=O)N[C@@H](CCC(N)=O)C(N)=O)[C@H](C)OP(=O)(O)O [Peptide 17, Ac-Phe-D-Thr(PO3H2)-Pip-Nal-Gln-NH2] (Ac-F[d(pT)][Pip][2Nal]Q-NH2)
250 pmol peptide 17, coinjection of 2 ng of V5-tagged hPin1 mRNA
  number of vital embryos: up to 73%
250 pmol peptide 17, without coinjection of mRNA
  number of vital embryos: 18%
300 pmol, stage 2 embryos, examined 5 hours after injection
  normal embryos after microinjection: very low number of normal embryos
Microinjection at stage 2
  effect on development of the embryos: cell cycle blockage and embryonic death
